# Test results from patent publication US7598382B2, “Aryl substituted imidazoquinolines” (Coley Pharmaceutical Group, Inc., priority 2002, dated 2009).
row,melting point [°C],Structure (SMILES)
1,228 to 230,"CCCCc1nc2c(N)nc3cc(-c4cccnc4)ccc3c2n1CCNC(=O)C(C)C [Example 390, N-{2-[4-Amino-2-butyl-7-(pyridin-3-yl)-1H-imidazo[4,5-c]quinolin-1-yl]ethyl}-2-methylpropanamide]"
2,240 to 241,"CCCCc1nc2c(N)nc3cc(-c4cccnc4)ccc3c2n1CCNC(=O)NC(C)C [Example 392, N-{2-[4-Amino-2-butyl-7-(pyridin-3-yl)-1H-imidazo[4,5-c]quinolin-1-yl]ethyl}-N′-(1-methylethyl)urea]"
3,173 to 175,"CCOc1ccccc1-c1ccc2c(c1)nc(N)c1nc(COC)n(CC(C)(C)O)c12 [Example 394, 1-[4-Amino-7-(2-ethoxyphenyl)-2-methoxymethyl-1H-imidazo[4,5-c]quinolin-1-yl]-2-methylpropan-2-ol]"
4,225 to 225.5,"COCc1nc2c(N)nc3cc(-c4cccnc4)ccc3c2n1CC(C)(C)O [Example 396, 1-[4-Amino-2-methoxymethyl-7-(pyridin-3-yl)-1H-imidazo[4,5-c]quinolin-1-yl]-2-methylpropan-2-ol]"
5,190 to 190.5,"COCc1nc2c(N)nc3cc(-c4ccc(OC)nc4)ccc3c2n1CC(C)(C)O [Example 398, 1-[4-Amino-2-methoxymethyl-7-(6-methoxypyridin-3-yl)-1H-imidazo[4,5-c]quinolin-1-yl]-2-methylpropan-2-ol]"
6,238.5 to 241,"CCCc1nc2c(N)nc3cc(-c4cccnc4)ccc3c2n1CC(C)(C)O [Example 418, 1-[4-Amino-2-propyl-7-(pyridin-3-yl)-1H-imidazo[4,5-c]quinolin-1-yl]-2-methylpropan-2-ol]"
7,221 to 224,"CC(C)Cn1cnc2c(N)nc3ccc(CCc4ccncc4)cc3c21 [Example 425, 1-(2-Methylpropyl)-8-(2-pyridin-4-ylethyl)-1H-imidazo[4,5-c]quinolin-4-amine]"
8,176 to 177,"CC(C)Cn1cnc2c(N)nc3ccc(CCCCc4ccccc4)cc3c21 [Example 426, 1-(2-Methylpropyl)-8-(4-phenylbutyl)-1H-imidazo[4,5-c]quinolin-4-amine]"
9,257 to 258,"CC(C)Cn1cnc2c(N)nc3cc(C=Cc4ccccc4)ccc3c21 [Example 427, 1-(2-Methylpropyl)-7-styryl-1H-imidazo[4,5-c]quinolin-4-amine]"
10,125,"CC(C)Cn1cnc2c(N)nc3cc(-c4cccnc4)ccc3c21 [Example 428, 1-(2-Methylpropyl)-7-(pyridin-3-yl)-1H-imidazo[4,5-c]quinolin-4-amine]"
11,210 to 211,"CC(C)Cn1cnc2c(N)nc3cc(-c4cncc(CO)c4)ccc3c21 [Example 429, 1-(2-Methylpropyl)-7-(5-hydroxymethylpyridin-3-yl)-1H-imidazo[4,5-c]quinolin-4-amine]"
12,172 to 173,"CC(C)Cn1cnc2c(N)nc3cc(CCc4ccccc4)ccc3c21 [Example 430, 1-(2-Methylpropyl)-7-phenethyl-1H-imidazo[4,5-c]quinolin-4-amine]"
13,228 to 229,"CC(C)(O)Cn1cnc2c(N)nc3cc(Cc4ccccc4)ccc3c21 [Example 431, 1-(4-Amino-7-benzyl-1H-imidazo[4,5-c]quinolin-1-yl)-2-methylpropan-2-ol]"
14,256 to 257,"CC(C)(O)Cn1cnc2c(N)nc3ccc(Cc4ccccc4)cc3c21 [Example 434, 1-(4-Amino-8-benzyl-1H-imidazo[4,5-c]quinolin-1-yl)-2-methylpropan-2-ol]"
15,191 to 192,"CCCc1nc2c(N)nc3ccc(Cc4ccccc4)cc3c2n1CC(C)(C)O [Example 435, 1-(4-Amino-8-benzyl-2-propyl-1H-imidazo[4,5-c]quinolin-1-yl)-2-methylpropan-2-ol]"
16,209 to 210,"CCOCc1nc2c(N)nc3ccc(Cc4ccccc4)cc3c2n1CC(C)(C)O [Example 436, 1-(4-Amino-8-benzyl-2-ethoxymethyl-1H-imidazo[4,5-c]quinolin-1-yl)-2-methylpropan-2-ol]"

# More lines, now with the values behind:
row,Structure (SMILES),melting point [°C]
1,"CCCCc1nc2c(N)nc3cc(-c4cccnc4)ccc3c2n1CCN1CCCS1(=O)=O [Example 393, 1-[2-(1,1-Dioxo-1-isothiazolidin-2-yl)ethyl]-2-butyl-7-(pyridin-3-yl)-1H-imidazo[4,5-c]quinolin-4-amine]",290 to 292
2,"COCc1nc2c(N)nc3cc(-c4cncnc4)ccc3c2n1CC(C)(C)O [Example 395, 1-[4-Amino-2-methoxymethyl-7-(pyrimidin-5-yl)-1H-imidazo[4,5-c]quinolin-1-yl]-2-methylpropan-2-ol]",220 to 220.5
3,"COCc1nc2c(N)nc3cc(-c4cnc(OC)nc4)ccc3c2n1CC(C)(C)O [Example 397, 1-[4-Amino-2-methoxymethyl-7-(2-methoxypyrimidin-5-yl)-1H-imidazo[4,5-c]quinolin-1-yl]-2-methylpropan-2-ol]",241 to 242
4,"COCc1nc2c(N)nc3cc(-c4cnccc4OC)ccc3c2n1CC(C)(C)O [Example 399, 1-[4-Amino-2-methoxymethyl-7-(4-methoxypyridin-3-yl)-1H-imidazo[4,5-c]quinolin-1-yl]-2-methylpropan-2-ol]",220.5 to 222
5,"COCc1nc2c(N)nc3cc(-c4cncc(OC)c4)ccc3c2n1CC(C)(C)O [Example 400, 1-[4-Amino-2-methoxymethyl-7-(5-methoxypyridin-3-yl)-1H-imidazo[4,5-c]quinolin-1-yl]-2-methylpropan-2-ol]",234 to 236
6,"CCc1nc2c(N)nc3cc(-c4cccnc4)ccc3c2n1CC1CCN(C(=O)OC(C)(C)C)CC1 [Example 404, tert-Butyl 4-{[4-amino-2-ethyl-7-(pyridin-3-yl)-1H-imidazo[4,5-c]quinolin-1-yl]methyl}piperidine-1-carboxylate]",229 to 231
7,"CCCc1nc2c(N)nc3cc(-c4cccnc4)ccc3c2n1CC1CCN(C(=O)OC(C)(C)C)CC1 [Example 409, tert-Butyl 4-{[4-amino-2-propyl-7-(pyridin-3-yl)-1H-imidazo[4,5-c]quinolin-1-yl]methyl}piperidine-1-carboxylate]",209 to 211
8,"CCCc1nc2c(N)nc3cc(-c4cccnc4)ccc3c2n1CC1CCN(C(=O)C(C)C)CC1 [Example 412, 1-{4-[4-Amino-2-propyl-7-(pyridin-3-yl)-1H-imidazo[4,5-c]quinolin-1-ylmethyl]piperidin-1-yl}-2-methylpropan-1-one]",248 to 249
9,"CCOCc1nc2c(N)nc3cc(-c4cccnc4)ccc3c2n1CCN1CCNCC1 [Example 414, 2-Ethoxymethyl-1-(2-piperazin-1-ylethyl)-7-(pyridin-3-yl)-1H-imidazo[4,5-c]quinolin-4-amine]",208 to 211
10,"CCCc1nc2c(N)nc3cc(-c4cncc(CO)c4)ccc3c2n1CC(C)(C)O [Example 420, 1-[4-Amino-7-(5-hydroxymethylpyridin-3-yl)-2-propyl-1H-imidazo[4,5-c]quinolin-1-yl]-2-methylpropan-2-ol]",225 to 226
11,"CCOCc1nc2c(N)nc3cc(-c4cccnc4)ccc3c2n1CC1CCCCC1 [Example 438, 1-Cyclohexylmethyl-2-ethoxymethyl-7-(pyridin-3-yl)-1H-imidazo[4,5-c]quinolin-4-amine]",146 to 148
